Results as given in patent US8192962B2, “Processes for detecting toxic substances” (Daikin Industries, Ltd., priority 2001, dated 2012).

Test system: Genes belonging to other category
Assay: DNA chip mRNA expression in yeast, genes belonging to other category (Table 9)
Format: cell-based, Saccharomyces cerevisiae S288C
Protocol: Yeast (Saccharomyces cerevisiae S288C (α SUC2mal mel gap2 CUP1)) were incubated at 25° C. on YPD medium (yeast extract 1%, polypepton 2%, glucose 2%). One of toxic chemical substances was added to the cells at logarithmic growth phase, and the cells were further incubated for two hours. Cells were cultured without any chemical substance in the same condition, and were used as control. Concentrations of the chemical substances were defined to inhibit the growth of the yeast but not lead to death.
After completion of the incubation, the culture was centrifuged to collect the cells. To the cells, sodium acetate buffer (50 mM sodium acetate, 10 mM EDTA, 1% SDS) was added, and the mixture was shaken at 65° C. for five minutes, followed by returning to room temperature, and obtaining the supernatant, of which the procedures were repeated two times. To the supernatant, ½ amount of a solution of phenol/chloroform was added, and the mixture was centrifuged to give a supernatant, which was added with an equal amount of chloroform, and the mixture was centrifuged to give a supernatant. To the supernatant, an equal amount of isopropanol containing 0.3 M sodium acetate was added, and the mixture was allowed to stand at room temperature for 30 minutes, after which the mixture was centrifuged to give a sediment of the whole RNAs. Seventy % ethanol was added to the sediment, and the mixture was again centrifuged to give a sediment, which was then dried and dissolved in water. mRNA was isolated from the whole RNAs as followings. In view of the fact that a poly A chain is attached to the 3′ terminus of mRNA, a polynucleotide having a poly T structure which was immobilized on the surface of latex beads was used to trap the mRNA, and then the mRNA was washed and eluted with spine column (Oligotex-dT30<Super>mRNA Purification Kit, Takara). Reverse transcription of the mRNA was conducted with a reverse transcriptase (Super Script II Reverse Transcriptase; catalogue No. 18064-014, GibcoBRL) using fluorescence-labeled nucleotides to give cDNAs that were introduced with Cy3-dUTP or Cy5-dUTP during the reverse transcription.
The labeled cDNAs were dissolved in TE buffer (10mM Tris-HCl/1 mM EDTA, pH8.0), and the solution was dropped on the DNA chip containing the whole genes of yeast (DNA Chip Research Inc. Japan) so that the cDNAs were hybridized on the DNA chip at 65° C. for over 12 hours. The fluoresces intensity of the DNA chip was read with a scanner, and the ratio relative to the fluorescence intensity resulting from the absence of chemical substance was estimated as the following, which is shown in Tables 1 to 9: […]

For `N#Cc1c(Cl)c(Cl)c(Cl)c(C#N)c1Cl` [(9), 2,4,5,6-tetrachloro-1,3-benzenedicarbonitrile], the “The level of expressed mRNA in the presence of chemical substance/The level of expressed mRNA in the absence of chemical substance” value (yeast gene YAL055W) was 1.0, the “The level of expressed mRNA in the presence of chemical substance/The level of expressed mRNA in the absence of chemical substance” value (yeast gene YAR010C) was 1.2 and the “The level of expressed mRNA in the presence of chemical substance/The level of expressed mRNA in the absence of chemical substance” value (yeast gene YBL005W-A) was 0.8. For the same compound, the “The level of expressed mRNA in the presence of chemical substance/The level of expressed mRNA in the absence of chemical substance” value (yeast gene YBL041W) was 2.8, the “The level of expressed mRNA in the presence of chemical substance/The level of expressed mRNA in the absence of chemical substance” value (yeast gene YBL043W) was 0.5 and the “The level of expressed mRNA in the presence of chemical substance/The level of expressed mRNA in the absence of chemical substance” value (yeast gene YBL078C) was 12.3. For the same compound, the “The level of expressed mRNA in the presence of chemical substance/The level of expressed mRNA in the absence of chemical substance” value (yeast gene YBL102W) was 2.3, the “The level of expressed mRNA in the presence of chemical substance/The level of expressed mRNA in the absence of chemical substance” value (yeast gene YBR046C) was 4.6 and the “The level of expressed mRNA in the presence of chemical substance/The level of expressed mRNA in the absence of chemical substance” value (yeast gene YBR139W) was 2.3. For the same compound, the “The level of expressed mRNA in the presence of chemical substance/The level of expressed mRNA in the absence of chemical substance” value (yeast gene YBR177C) was 2.1, the “The level of expressed mRNA in the presence of chemical substance/The level of expressed mRNA in the absence of chemical substance” value (yeast gene YBR212W) was 2.7 and the “The level of expressed mRNA in the presence of chemical substance/The level of expressed mRNA in the absence of chemical substance” value (yeast gene YBR214W) was 2.2. For the same compound, the “The level of expressed mRNA in the presence of chemical substance/The level of expressed mRNA in the absence of chemical substance” value (yeast gene YCL020W) was 0.9, the “The level of expressed mRNA in the presence of chemical substance/The level of expressed mRNA in the absence of chemical substance” value (yeast gene YCL027W) was 0.7 and the “The level of expressed mRNA in the presence of chemical substance/The level of expressed mRNA in the absence of chemical substance” value (yeast gene YCL033C) was 2.3. For the same compound, the “The level of expressed mRNA in the presence of chemical substance/The level of expressed mRNA in the absence of chemical substance” value (yeast gene YCL067C) was 1.4, the “The level of expressed mRNA in the presence of chemical substance/The level of expressed mRNA in the absence of chemical substance” value (yeast gene YCR004C) was 4.7 and the “The level of expressed mRNA in the presence of chemical substance/The level of expressed mRNA in the absence of chemical substance” value (yeast gene YCR062W) was 0.7. The “The level of expressed mRNA in the presence of chemical substance/The level of expressed mRNA in the absence of chemical substance” value (yeast gene YCR071C) was 0.6, the “The level of expressed mRNA in the presence of chemical substance/The level of expressed mRNA in the absence of chemical substance” value (yeast gene YCR088W) was 0.8 and the “The level of expressed mRNA in the presence of chemical substance/The level of expressed mRNA in the absence of chemical substance” value (yeast gene YDL007W) was 3.8. The “The level of expressed mRNA in the presence of chemical substance/The level of expressed mRNA in the absence of chemical substance” value (yeast gene YDL008W) was 2.3, the “The level of expressed mRNA in the presence of chemical substance/The level of expressed mRNA in the absence of chemical substance” value (yeast gene YDL018C) was 1.0 and the “The level of expressed mRNA in the presence of chemical substance/The level of expressed mRNA in the absence of chemical substance” value (yeast gene YDL065C) was 2.4. For the same compound, the “The level of expressed mRNA in the presence of chemical substance/The level of expressed mRNA in the absence of chemical substance” value (yeast gene YDL197C) was 2.6, the “The level of expressed mRNA in the presence of chemical substance/The level of expressed mRNA in the absence of chemical substance” value (yeast gene YDL229W) was 1.4 and the “The level of expressed mRNA in the presence of chemical substance/The level of expressed mRNA in the absence of chemical substance” value (yeast gene YDL230W) was 2.6. The “The level of expressed mRNA in the presence of chemical substance/The level of expressed mRNA in the absence of chemical substance” value (yeast gene YDL238C) was 1.7, the “The level of expressed mRNA in the presence of chemical substance/The level of expressed mRNA in the absence of chemical substance” value (yeast gene YDR055W) was 0.8 and the “The level of expressed mRNA in the presence of chemical substance/The level of expressed mRNA in the absence of chemical substance” value (yeast gene YDR084C) was 0.6. For the same compound, the “The level of expressed mRNA in the presence of chemical substance/The level of expressed mRNA in the absence of chemical substance” value (yeast gene YDR085C) was 0.4, the “The level of expressed mRNA in the presence of chemical substance/The level of expressed mRNA in the absence of chemical substance” value (yeast gene YDR099W) was 2.4 and the “The level of expressed mRNA in the presence of chemical substance/The level of expressed mRNA in the absence of chemical substance” value (yeast gene YDR104C) was 2.8. The “The level of expressed mRNA in the presence of chemical substance/The level of expressed mRNA in the absence of chemical substance” value (yeast gene YDR115W) was 1.1, the “The level of expressed mRNA in the presence of chemical substance/The level of expressed mRNA in the absence of chemical substance” value (yeast gene YDR125C) was 0.7 and the “The level of expressed mRNA in the presence of chemical substance/The level of expressed mRNA in the absence of chemical substance” value (yeast gene YDR188W) was 2.9. For the same compound, the “The level of expressed mRNA in the presence of chemical substance/The level of expressed mRNA in the absence of chemical substance” value (yeast gene YDR257C) was 3.0, the “The level of expressed mRNA in the presence of chemical substance/The level of expressed mRNA in the absence of chemical substance” value (yeast gene YDR259C) was 1.0 and the “The level of expressed mRNA in the presence of chemical substance/The level of expressed mRNA in the absence of chemical substance” value (yeast gene YDR315C) was 1.1. For the same compound, the “The level of expressed mRNA in the presence of chemical substance/The level of expressed mRNA in the absence of chemical substance” value (yeast gene YDR358W) was 2.9, the “The level of expressed mRNA in the presence of chemical substance/The level of expressed mRNA in the absence of chemical substance” value (yeast gene YDR388W) was 1.4 and the “The level of expressed mRNA in the presence of chemical substance/The level of expressed mRNA in the absence of chemical substance” value (yeast gene YDR427W) was 2.3. For the same compound, the “The level of expressed mRNA in the presence of chemical substance/The level of expressed mRNA in the absence of chemical substance” value (yeast gene YDR432W) was 0.7, the “The level of expressed mRNA in the presence of chemical substance/The level of expressed mRNA in the absence of chemical substance” value (yeast gene YDR481C) was 1.9 and the “The level of expressed mRNA in the presence of chemical substance/The level of expressed mRNA in the absence of chemical substance” value (yeast gene YDR506C) was 1.9. The “The level of expressed mRNA in the presence of chemical substance/The level of expressed mRNA in the absence of chemical substance” value (yeast gene YDR510W) was 2.7, the “The level of expressed mRNA in the presence of chemical substance/The level of expressed mRNA in the absence of chemical substance” value (yeast gene YDR515W) was 5.8 and the “The level of expressed mRNA in the presence of chemical substance/The level of expressed mRNA in the absence of chemical substance” value (yeast gene YEL042W) was 0.2. The “The level of expressed mRNA in the presence of chemical substance/The level of expressed mRNA in the absence of chemical substance” value (yeast gene YEL052W) was 3.0 and the “The level of expressed mRNA in the presence of chemical substance/The level of expressed mRNA in the absence of chemical substance” value (yeast gene YEL066W) was 1.3.
